Assay results taken from patent US20240398784A1, “C-LINKED ISOQUINOLINE AMIDES AS LRRK2 INHIBITORS, PHARMACEUTICAL COMPOSITIONS, AND USES THEREOF” (Merck Sharp & Dohme LLC, priority 2021, published 2024).

Molecular target: LRRK2 G2019S (Homo sapiens, UniProt Q5S007, G2019S)
Test: LRRK2 G2019S Km ATP LanthaScreen assay
Type: biochemical
Conditions: read-out: LRRK2 pIC50 (converted)

Sequence of LRRK2 G2019S (Q5S007 whole entry G2019S): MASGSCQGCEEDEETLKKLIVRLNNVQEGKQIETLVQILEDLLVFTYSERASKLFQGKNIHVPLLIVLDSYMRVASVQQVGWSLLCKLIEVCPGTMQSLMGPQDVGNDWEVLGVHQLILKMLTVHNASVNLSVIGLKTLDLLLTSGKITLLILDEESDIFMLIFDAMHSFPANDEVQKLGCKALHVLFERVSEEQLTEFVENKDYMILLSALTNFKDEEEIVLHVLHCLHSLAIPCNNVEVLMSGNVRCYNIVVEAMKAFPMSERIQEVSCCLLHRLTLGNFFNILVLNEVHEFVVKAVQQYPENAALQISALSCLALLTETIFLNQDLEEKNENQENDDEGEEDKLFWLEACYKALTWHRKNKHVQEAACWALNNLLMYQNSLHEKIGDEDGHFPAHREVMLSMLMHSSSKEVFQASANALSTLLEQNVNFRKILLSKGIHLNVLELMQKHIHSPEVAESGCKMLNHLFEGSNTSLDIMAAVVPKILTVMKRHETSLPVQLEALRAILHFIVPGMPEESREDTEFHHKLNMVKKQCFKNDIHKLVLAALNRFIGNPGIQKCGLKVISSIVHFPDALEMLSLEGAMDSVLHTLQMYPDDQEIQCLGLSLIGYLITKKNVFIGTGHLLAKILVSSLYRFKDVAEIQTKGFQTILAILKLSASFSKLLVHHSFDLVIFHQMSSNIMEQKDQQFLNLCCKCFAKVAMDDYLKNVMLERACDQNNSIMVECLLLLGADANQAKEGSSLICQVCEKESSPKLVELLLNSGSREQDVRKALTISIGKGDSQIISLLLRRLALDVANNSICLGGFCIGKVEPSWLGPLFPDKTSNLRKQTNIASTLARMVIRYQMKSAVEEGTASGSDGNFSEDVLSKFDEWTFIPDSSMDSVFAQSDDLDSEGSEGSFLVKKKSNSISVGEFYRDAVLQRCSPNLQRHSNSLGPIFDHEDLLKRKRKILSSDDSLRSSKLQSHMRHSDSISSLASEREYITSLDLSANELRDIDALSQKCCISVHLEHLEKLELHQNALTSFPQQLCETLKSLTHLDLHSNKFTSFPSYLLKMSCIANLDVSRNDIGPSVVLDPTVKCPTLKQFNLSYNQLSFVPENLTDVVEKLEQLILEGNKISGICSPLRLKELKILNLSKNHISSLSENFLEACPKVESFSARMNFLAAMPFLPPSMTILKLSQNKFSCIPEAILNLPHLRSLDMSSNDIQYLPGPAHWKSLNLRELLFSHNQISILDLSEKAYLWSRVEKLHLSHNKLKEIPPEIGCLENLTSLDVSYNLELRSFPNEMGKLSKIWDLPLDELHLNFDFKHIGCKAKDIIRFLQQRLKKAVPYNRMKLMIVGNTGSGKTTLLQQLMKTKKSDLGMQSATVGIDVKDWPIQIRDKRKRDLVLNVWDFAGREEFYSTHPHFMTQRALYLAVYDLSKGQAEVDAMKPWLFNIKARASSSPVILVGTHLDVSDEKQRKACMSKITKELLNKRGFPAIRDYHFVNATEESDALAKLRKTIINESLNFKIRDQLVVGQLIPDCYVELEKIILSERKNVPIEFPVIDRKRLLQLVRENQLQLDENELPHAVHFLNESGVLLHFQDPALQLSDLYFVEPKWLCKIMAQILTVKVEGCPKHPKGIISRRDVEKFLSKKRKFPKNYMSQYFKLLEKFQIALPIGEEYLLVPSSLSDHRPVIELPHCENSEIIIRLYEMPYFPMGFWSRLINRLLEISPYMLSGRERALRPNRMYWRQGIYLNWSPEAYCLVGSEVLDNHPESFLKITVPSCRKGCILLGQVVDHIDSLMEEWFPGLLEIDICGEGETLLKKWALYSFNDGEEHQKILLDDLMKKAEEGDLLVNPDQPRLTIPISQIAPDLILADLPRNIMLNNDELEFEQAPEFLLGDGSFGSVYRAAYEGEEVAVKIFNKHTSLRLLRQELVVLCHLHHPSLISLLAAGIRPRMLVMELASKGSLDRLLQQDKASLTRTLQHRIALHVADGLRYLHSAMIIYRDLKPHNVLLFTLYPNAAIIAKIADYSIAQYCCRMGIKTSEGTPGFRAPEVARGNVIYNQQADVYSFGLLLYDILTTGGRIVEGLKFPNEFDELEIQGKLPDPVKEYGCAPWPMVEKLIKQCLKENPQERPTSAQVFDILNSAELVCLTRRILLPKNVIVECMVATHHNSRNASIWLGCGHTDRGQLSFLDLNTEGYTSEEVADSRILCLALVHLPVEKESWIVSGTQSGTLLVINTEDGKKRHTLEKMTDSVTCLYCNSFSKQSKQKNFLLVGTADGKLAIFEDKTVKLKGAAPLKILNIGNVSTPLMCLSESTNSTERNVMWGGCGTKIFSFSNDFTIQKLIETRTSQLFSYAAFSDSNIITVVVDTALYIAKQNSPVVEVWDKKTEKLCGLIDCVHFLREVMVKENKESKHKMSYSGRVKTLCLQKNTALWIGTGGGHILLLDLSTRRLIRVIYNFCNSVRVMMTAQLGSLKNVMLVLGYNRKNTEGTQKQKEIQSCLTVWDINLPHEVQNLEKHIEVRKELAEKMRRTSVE

IC50 [nM] | SMILES
6.61 | CC1(N2CCC(c3cc4cc(NC(=O)C5CC5c5ccccn5)ncc4cc3Cl)CC2)CCOC1 (single isomer, unassigned) [Ex-6.35, N-(7-chloro-6-(1-(3-methyltetrahydrofuran-3-yl)piperidin-4-yl)isoquinolin-3-yl)-2-(pyridin-2-yl)cyclopropane-1-carboxamide]
0.0813 | CC1(N2CCC(c3cc4cc(NC(=O)C5CC56CC6)ncc4cc3Cl)CC2)COCC1O (single isomer, unassigned) [Ex-4.5, N-(7-chloro-6-(1-(4-hydroxy-3-methyltetrahydrofuran-3-yl)piperidin-4-yl)isoquinolin-3-yl)spiro[2.2]pentane-1-carboxamide]
0.0813 | CC1(N2CCC(c3cc4cc(NC(=O)C5CC5c5ccco5)ncc4cc3Cl)CC2)COCC1O (single isomer, unassigned) [Ex-4.66, N-(7-chloro-6-(1-(4-hydroxy-3-methyltetrahydrofuran-3-yl)piperidin-4-yl)isoquinolin-3-yl)-2-(furan-2-yl)cyclopropane-1-carboxamide]
66.1 | O=C(Nc1cc2cc(C3CCN(C4COCC4O)CC3)c(Cl)cc2cn1)C1CC1 (single isomer, unassigned) [Ex-12.4, N-(7-chloro-6-(1-(4-hydroxytetrahydrofuran-3-yl)piperidin-4-yl)isoquinolin-3-yl)cyclopropanecarboxamide]
0.0813 | CC1(N2CCC(c3cc4cc(NC(=O)C5CC5C5CCOCC5)ncc4cc3Cl)CC2)COCC1O (single isomer, unassigned) [Ex-4.67, N-(7-chloro-6-(1-(4-hydroxy-3-methyltetrahydrofuran-3-yl)piperidin-4-yl)isoquinolin-3-yl)-2-(tetrahydro-2H-pyran-4-yl)cyclopropane-1-carboxamide]
0.0813 | CC1(N2CCC(c3cc4cc(NC(=O)C5CC5c5ccccn5)ncc4cc3F)CC2)COCC1O (single isomer, unassigned) [Ex-8.4, N-(7-fluoro-6-(1-(4-hydroxy-3-methyltetrahydrofuran-3-yl)piperidin-4-yl)isoquinolin-3-yl)-2-(pyridin-2-yl)cyclopropane-1-carboxamide]
44.7 | CC1C(C(=O)Nc2cc3cc(C4CCN(C5(C)COCC5O)CC4)c(Cl)cc3cn2)C12CCOCC2 (single isomer, unassigned) [Ex-10.7, N-(7-chloro-6-(1-(4-hydroxy-3-methyltetrahydrofuran-3-yl)piperidin-4-yl)isoquinolin-3-yl)-2-methyl-6-oxaspiro[2.5]octane-1-carboxamide]
0.0813 | CC1(N2CCC(c3cc4cc(NC(=O)C5C6CCCOC65)ncc4cc3Cl)CC2)COCC1O (single isomer, unassigned) [Ex-4.14, N-(7-chloro-6-(1-(4-hydroxy-3-methyltetrahydrofuran-3-yl)piperidin-4-yl)isoquinolin-3-yl)-2-oxabicyclo[4.1.0]heptane-7-carboxamide]
0.631 | CC1(N2CCC(c3cc4cc(NC(=O)Cc5cnn(C(F)F)c5)ncc4cc3Cl)CC2)COCC1O (stereo not shown) [Ex-3.11]
16.6 | CC1(C(=O)Nc2cc3cc(C4CCN(C5COC5)CC4)c(Cl)cc3cn2)CC1 [Ex-7.3, N-(7-chloro-6-(1-(oxetan-3-yl)piperidin-4-yl)isoquinolin-3-yl)-1-methylcyclopropane-1-carboxamide]
0.398 | CC1(N2CCC(c3cc4cc(NC(=O)C5C6CCCOC65)ncc4cc3Cl)CC2)COCC1O (single isomer, unassigned) [Ex-4.12, N-(7-chloro-6-(1-(4-hydroxy-3-methyltetrahydrofuran-3-yl)piperidin-4-yl)isoquinolin-3-yl)-2-oxabicyclo[4.1.0]heptane-7-carboxamide]
0.427 | CC1(C)CCC(C(=O)Nc2cc3cc(C4CCN(C5(C)COCC5O)CC4)c(Cl)cc3cn2)CO1 (single isomer, unassigned) [Ex-4.26, N-(7-chloro-6-(1-(4-hydroxy-3-methyltetrahydrofuran-3-yl)piperidin-4-yl)isoquinolin-3-yl)-6,6-dimethyltetrahydrofuran-2H-pyran-3-carboxamide]
0.112 | Cc1nn(C)cc1CC(=O)Nc1cc2cc(C3CCN(C4(C)COCC4O)CC3)c(Cl)cc2cn1 (single isomer, unassigned) [Ex-1.40, N-(7-chloro-6-(1-((3R,4R or 3S,4S)-4-hydroxy-3-methyltetrahydrofuran-3-yl)piperidin-4-yl)isoquinolin-3-yl)-2-(1,3-dimethyl-1H-pyrazol-4-yl)acetamide]
0.0813 | Cn1ccc(C2CC2C(=O)Nc2cc3cc(C4CCN(C5(C)COCC5F)CC4)c(Cl)cc3cn2)n1 (stereo not shown) [Ex-2.84]
2.04 | N#CC1(c2ccc3cnc(NC(=O)C4CC4c4ccccn4)cc3c2)CC12CC2 (stereo not shown) [Ex-2.38]
0.0813 | CC1(N2CCC(c3cc4cc(NC(=O)C5C6CCOCC65)ncc4cc3Cl)CC2)COCC1F (single isomer, unassigned) [Ex-6.41, N-(7-chloro-6-(1-(4-fluoro-3-methyltetrahydrofuran-3-yl)piperidin-4-yl)isoquinolin-3-yl)-3-oxabicyclo[4.1.0]heptane-7-carboxamide]
5.62 | Cc1cc2cnc(NC(=O)C3CC3c3ccccn3)cc2cc1C1CCN(C2(C)COCC2O)CC1 (single isomer, unassigned) [Ex-4.77, N-(6-(1-(4-hydroxy-3-methyltetrahydrofuran-3-yl)piperidin-4-yl)-7-methylisoquinolin-3-yl)-2-(pyridin-2-yl)cyclopropane-1-carboxamide]
0.0813 | CC1(N2CCC(c3cc4cc(NC(=O)C5CCCOC5)ncc4cc3Cl)CC2)COCC1O (stereo not shown) [Ex-2.25]
52.5 | CC1(c2ccccn2)CC1C(=O)Nc1cc2cc(C3CCN(C4(C)COCC4O)CC3)c(Cl)cc2cn1 (stereo not shown) [Ex-2.90]
9.12 | CC1(N2CCC(c3cc4cc(NC(=O)C56CC(C5)C6)ncc4cc3Cl)CC2)COC1 [Ex-7.7, N-(7-chloro-6-(1-(3-methyloxetan-3-yl)piperidin-4-yl)isoquinolin-3-yl)bicyclo[1.1.1]pentane-1-carboxamide]

The next lines start with the molecule.

SMILES | IC50 [nM]
COCC(C)c1cc2cc(NC(=O)C3CC34CCOCC4)ncc2cc1Cl (single isomer, unassigned) [Ex-9.11, N-(7-chloro-6-(1-methoxypropan-2-yl)isoquinolin-3-yl)-6-oxaspiro[2.5]octane-1-carboxamide] | 44.7
CCC1C(C(=O)Nc2cc3cc(C(C)COC)c(Cl)cc3cn2)C1c1cnn(C)c1 (single isomer, unassigned) [Ex-9.13, N-(7-chloro-6-(1-methoxypropan-2-yl)isoquinolin-3-yl)-2-ethyl-3-(1-methyl-1H-pyrazol-4-yl)cyclopropane-1-carboxamide] | 6.92
N#CC1(c2ccc3cnc(NC(=O)C4C5Oc6cc(Cl)ncc6C54)cc3c2)CC12CC2 (single isomer, unassigned) [Ex-1.33, (1S,1aR,6bS or 1R,1aS,6bR)-4-chloro-N-(6-((R or S)-1-cyanospiro[2.2]pentan-1-yl)isoquinolin-3-yl)-1a,6b-dihydro-1H-cyclopropa[4,5]furo[3,2-c]pyridine-1-carboxamide] | 28.2
CC1(N2CCC(c3cc4cc(NC(=O)C5CC56CCOCC6)ncc4cc3Cl)CC2)COC(C2CC2)C1 (single isomer, unassigned) [Ex-6.17, N-(7-chloro-6-(1-(5-cyclopropyl-3-methyltetrahydrofuran-3-yl)piperidin-4-yl)isoquinolin-3-yl)-6-oxaspiro[2.5]octane-1-carboxamide] | 3.55
CCC1C(C(=O)Nc2cc3cc(C(C)CC#N)c(Cl)cc3cn2)C1c1cnn(C)c1 (single isomer, unassigned) [Ex-9.15, N-(7-chloro-6-(1-cyanopropan-2-yl)isoquinolin-3-yl)-2-ethyl-3-(1-methyl-1H-pyrazol-4-yl)cyclopropane-1-carboxamide] | 0.427
CC1(N2CCC(c3cc4cc(NC(=O)C5CC56CCOCC6)ncc4cc3Cl)CC2)CCOC1 (stereo not shown) [Ex-2.23] | 0.166
N#CC1(c2ccc3cnc(NC(=O)[C@@H]4C[C@@H](O)[C@H](F)C4)cc3c2)CC12CC2 (single isomer, unassigned) [Ex-1.29, (1R,3R,4R)-N-(6-((R or S)-1-cyanospiro[2.2]pentan-1-yl)isoquinolin-3-yl)-3-fluoro-4-hydroxycyclopentane-1-carboxamide] | 20.4
CC1CC1(C#N)c1ccc2cnc(NC(=O)C3CC3)cc2c1 (single isomer, unassigned) [Ex-18.7, (R or S)-N-(6-(1-cyano-2-methylcyclopropyl)isoquinolin-3-yl)cyclopropanecarboxamide] | 4.57
O=C(Nc1cc2cc(C3CCN(C4COC4)CC3F)c(Cl)cc2cn1)C1CC1 (single isomer, unassigned) [Ex-14.2, N-(7-chloro-6-((3R,4R,3S,4R,3R,4S or 3S,4S)-3-fluoro-1-(oxetan-3-yl)piperidin-4-yl)isoquinolin-3-yl)cyclopropanecarboxamide] | 4.07
CCC1C(C(=O)Nc2cc3cc(C4CCC(N5CC(C)(F)C5)CC4)c(Cl)cc3cn2)C1c1cnn(C)c1 (single isomer, unassigned) [Ex-11.2, (1R,2R,3R) or (1R,2S,3R) or (1S,2R,3S) or (1S,2S,3S)-N-(7-chloro-6-((cis or trans)-4-(3-fluoro-3-methylazetidin-1-yl)cyclohexyl)isoquinolin-3-yl)-2-ethyl-3-(1-methyl-1H-pyrazol-4-yl)cyclopropane-1-carboxamide] | 9.12
CC1(C)CC1(C#N)c1ccc2cnc(NC(=O)C3CC3)cc2c1 (single isomer, unassigned) [Ex-18.4, (R or S)-N-(6-(1-cyano-2,2-dimethylcyclopropyl)isoquinolin-3-yl)cyclopropanecarboxamide] | 61.7
Cn1ncc(C2CC2C(=O)Nc2cc3cc(C4(C#N)CC45CC5)ccc3cn2)c1C(F)(F)F (stereo not shown) [Ex-2.48] | 324
O=C(Nc1cc2cc(C3CCC(N4CC(F)C4)CC3)c(Cl)cc2cn1)C1CC12CCOCC2 (single isomer, unassigned) [Ex-11.6, N-(7-chloro-6-(4-(3-fluoroazetidin-1-yl)cyclohexyl)isoquinolin-3-yl)-6-oxaspiro[2.5]octane-1-carboxamide] | 3.8
N#CC1(c2ccc3cnc(NC(=O)C4CC4)cc3c2)CC12CC2 (single isomer, unassigned) [Ex-18.1, N-(6-(1-cyanospiro[2.2]pentan-1-yl)isoquinolin-3-yl)cyclopropanecarboxamide] | 2.29
